Experimental data published in patent publication US11691949B2, “Quinoline sulfonamide compounds and their use as antibacterial agents” (OTAGO INNOVATION LIMITED, priority 2017, dated 2023).
Converted amounts (≈) assume the structure as drawn. Read-outs that look alike come from different tables or passages of the source.

How the values were obtained:
Assay type in all cases: cell-based
E. coli ATCC 10596 = experiment: MIC by broth microdilution, E. coli; settings: Escherichia coli, read-out: E. coli ATCC 10536 MIC
Method: (§1) Antibacterial susceptibility testing was performed in triplicate (biological) by measuring minimum inhibitory concentrations (MICs) by broth microdilution in 96-well flat bottom microtiter plates (ThermoFisher Scientific, New Zealand). S. uberis ATCC 19436, S. aureus ATCC 6538, or E. coli ATCC 10596 cells grown overnight were diluted to an OD600 of approximately 0.025, so that the final concentration of cells in the MIC assay was approximately 5×10^5 cfu/mL in media as follows: S. uberis; Todd Hewitt Broth (THB), S. aureus; Tryptic Soy Broth (TSB) and Cation Adjusted Muller Hinton Broth (CAMHB), and E. coli; Lysogeny Borth (LB) and CAMHB, before being dispensed into microtiter wells. As required additional sterile Zinc Sulphate (Heptahydrate) was supplemented into the media, so the final concentration was 50 μM. Test compounds were added to starting wells and two-fold serial dilutions were undertaken to generate a range of inhibitor concentrations at a final volume of 200 μl. Media and test compound-free (untreated) controls were included in each microtiter plate in triplicate. After 24 h incubation at 37° C. and 200 rpm, the OD600 of wells were read using a Varioskan Flash plate reader (ThermoFisher Scientific, New Zealand). The MIC was reported as the lowest concentration of the test compound for which no growth occurred, as determined by OD600 readings. The minimum bactericidal concentration (MBC) was determined using the Miles-Misra drop-plate method to measure the viability of cells in response to test compound challenge.

S. uberis ATCC 19436 = experiment: MIC by broth microdilution, S. uberis; settings: Streptococcus uberis, read-out: S. uberis ATCC 19436 MIC
Method: as §1

S. aureus ATCC 6538 = experiment: MIC by broth microdilution, S. aureus; settings: Staphylococcus aureus, read-out: S. aureus ATCC 6538 MIC
Method: as §1

[1] = ATCC 10536 / ATCC 10596, No Zinc
[2] = ATCC 10536 / ATCC 10596, Zinc (50 μM)

Row | SMILES | MIC (E. coli ATCC 10596; [1]) | MIC (E. coli ATCC 10596; [2]) | MIC (S. uberis ATCC 19436; ATCC19436, No Zinc) | MIC (S. uberis ATCC 19436; ATCC19436, Zinc (50 μM)) | MIC (S. aureus ATCC 6538; ATCC6538, No Zinc) | MIC (S. aureus ATCC 6538; ATCC6538, Zinc (50 μM))
1 | CC(C)(C)OC(=O)N1CCCC(C(=O)N/N=C/c2ccc3cccc(NS(=O)(=O)c4ccc(C(F)(F)F)cc4)c3n2)C1 (mixture of isomers) [ZDR123, tert-Butyl (E/Z)-3-(2-((8-((4-(trifluoromethyl)phenyl)sulfonamido)quinolin-2-yl)methylene)hydrazine-1-carbonyl)piperidine-1-carboxylate] | > 256 µg/mL | > 256 µg/mL | > 256 µg/mL | 0.125 µg/mL | > 256 µg/mL | > 256 µg/mL
2 | Cc1ccc2cccc(NS(=O)(=O)c3ccc(C(F)(F)F)cc3)c2n1 [ZDR018, N-(2-Methylquinolin-8-yl)-4-(trifluoromethyl)benzenesulfonamide] | > 256 µg/mL | > 256 µg/mL | > 256 µg/mL | 0.125 µg/mL (≈ 0.341 µM) | > 256 µg/mL | > 256 µg/mL
3 | O=Cc1ccc2cccc(NS(=O)(=O)c3ccc(C(F)(F)F)cc3)c2n1 [ZDR019, N-(2-Formylquinolin-8-yl)-4-(trifluoromethyl)benzenesulfonamide] | 128 µg/mL (≈ 337 µM) | 128 µg/mL (≈ 337 µM) | 16 µg/mL (≈ 42.1 µM) | 1 µg/mL (≈ 2.63 µM) | 8 µg/mL (≈ 21 µM) | 8 µg/mL (≈ 21 µM)
4 | CN(C)Cc1ccc2cccc(NS(=O)(=O)c3ccc(C(F)(F)F)cc3)c2n1 [ZDR022, N-(2-((Dimethylamino)methyl)quinolin-8-yl)-4-(trifluoromethyl)-benzenesulfonamide] | > 256 µg/mL | > 256 µg/mL | 64 µg/mL (≈ 156 µM) | 0.125 µg/mL (≈ 0.305 µM) | 16 µg/mL (≈ 39.1 µM) | 8 µg/mL (≈ 19.5 µM)
5 | CNCc1ccc2cccc(NS(=O)(=O)c3ccc(C(F)(F)F)cc3)c2n1 [ZDR024, N-(2-((Methylamino)methyl)quinolin-8-yl)-4-(trifluoromethyl)-benzenesulfonamide] | 256 µg/mL (≈ 647 µM) | ≥ 256 µg/mL | 64 µg/mL (≈ 162 µM) | 0.25 µg/mL (≈ 0.632 µM) | 16 µg/mL (≈ 40.5 µM) | 8 µg/mL (≈ 20.2 µM)
6 | CCNCc1ccc2cccc(NS(=O)(=O)c3ccc(C(F)(F)F)cc3)c2n1 [ZDR025, N-(2-((Ethylamino)methyl)quinolin-8-yl)-4-(trifluoromethyl)-benzenesulfonamide] | 256 µg/mL (≈ 625 µM) | ≥ 256 µg/mL | 64 µg/mL (≈ 156 µM) | 0.125 µg/mL (≈ 0.305 µM) | 32 µg/mL (≈ 78.2 µM) | > 256 µg/mL
7 | CCCNCc1ccc2cccc(NS(=O)(=O)c3ccc(C(F)(F)F)cc3)c2n1 [ZDR026, N-(2-((Propylamino)methyl)quinolin-8-yl)-4-(trifluoromethyl)-benzenesulfonamide] | > 256 µg/mL | > 256 µg/mL | 64 µg/mL (≈ 151 µM) | 0.125 µg/mL (≈ 0.295 µM) | 32 µg/mL (≈ 75.6 µM) | > 256 µg/mL
8 | CC(C)NCc1ccc2cccc(NS(=O)(=O)c3ccc(C(F)(F)F)cc3)c2n1 [ZDR027, N-(2-((Isopropylamino)methyl)quinolin-8-yl)-4-(trifluoromethyl)-benzenesulfonamide] | > 256 µg/mL | > 256 µg/mL | 64 µg/mL (≈ 151 µM) | 0.125 µg/mL (≈ 0.295 µM) | 16 µg/mL (≈ 37.8 µM) | 16 µg/mL (≈ 37.8 µM)
